Data set [1] relates to Enterococcus faecalis BKM B-871. In words: Antibacterial activity, serial dilutions in liquid MH medium. In kind it is cell-based. The following applies: for MIC: MH medium, 20 h, 37° C., 100% growth inhibition; for MBC: no colonies on agarized MH medium. In a few lines:
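Broth microdilution in Mueller-Hinton medium at 37 °C with stirring, using exponential-phase cultures seeded at 5×10^4 to 1×10^5 cells/mL with twofold serial compound dilutions. Growth inhibition read as A595 after 20 h, corrected for compound absorbance; MIC and MBC determined.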

The nature of data set [2]: Water solubility.

As usually defined, the MIC is the smallest concentration in the dilution series that meets the test's criterion for growth inhibition. Low readings indicate inhibition by little substance, high ones a need for much substance. By MBC is commonly meant the lowest tested concentration that kills the bacteria rather than only halting them. In data set [1], “6,7-bis-[(Diamide N^α-L-Arginyl)-L-glutamyl]-Protohemin (IX)” had an MIC of 25 µM and an MBC of 50 µM. Besides, in data set [2], the water solubility entry was “water-soluble”.

Take “6,7-bis-(Amide N^α-Glycyl)-Protohemin (IX) [IV]”: the water solubility entry in data set [2] is recorded as “water-insoluble”.

`C=CC1=C(C)c2cc3[n-]c(cc4[n-]c(cc5nc(cc1n2)C(C)=C5C=C)c(C)c4CCC(=O)N[C@@H](CCCNC(=N)N)C(N)=O)c(CCC(=O)N[C@@H](CCCNC(=N)N)C(N)=O)c3C.[Cl-].[Fe+3]` [II, 6,7-bis-(Amide N^α-Arginyl)-Protohemin (IX)]: in data set [1], the MIC is 6.3 µM and the MBC worked out at 12.5 µM. Besides, the water solubility result in data set [2] is listed as “water-soluble”.

With `C=CC1=C(C)c2cc3[n-]c(cc4[n-]c(cc5nc(cc1n2)C(C)=C5C=C)c(C)c4CCC(=O)N[C@@H](CO)C(N)=O)c(CCC(=O)N[C@@H](CO)C(N)=O)c3C.[Cl-].[Fe+3]` [V, 6,7-bis-(Amide N^α-Seryl)-Protohemin (IX)], the water solubility result in data set [2] was “water-insoluble”.

Source of the values: patent US9605013B2, “Derivatives of hemin with antibacterial and antiviral activity” (OBSCHESTVO S OGRANICHENNOI OTVETSTVENNOSTIYU …, priority 2011, dated 2017).
